Measurements as given in patent publication US11548893B2 (priority 2017, dated 2023).

Columns and labels:
[1] = system: SUDV (glycoprotein, VSV pseudotype); test: microbe, parasite or virus in culture; format: cell-based, Sudan ebolavirus; conditions: Vesicular stomatitis virus, Vero, 24 h, read-out: EC50 Pseudotype Assays SUDV
[2] = system: BDBV (mucin-deleted glycoprotein, VSV pseudotype); test: microbe, parasite or virus in culture; format: cell-based, Bundibugyo ebolavirus; conditions: Vesicular stomatitis virus, Vero, 24 h, read-out: EC50 Pseudotype Assays BDBV
[3] = system: EBOV (mucin-deleted glycoprotein, VSV pseudotype); test: microbe, parasite or virus in culture; format: cell-based, Zaire ebolavirus; conditions: Zaire ebolavirus, Vero, 24 h, read-out: EC50 Pseudotype Assays EBOV
in vitro = conditions: African green monkey, Cytotox CC50
[4] = system: MARV (full-length glycoprotein, VSV pseudotype); test: microbe, parasite or virus in culture; format: cell-based, Marburg marburgvirus; conditions: Vesicular stomatitis virus, Vero, 24 h, read-out: EC50 Pseudotype Assays MARV

Row | Structure (SMILES) | EC50 [1] [nM] | EC50 [2] [nM] | EC50 [3] [nM] | CC50 (in vitro) [nM] | EC50 [4] [nM]
1 | N#CC12CC3CC(C(=O)N[C@H]4CC[C@H](N)CC4)(C1)CC(c1ccccc1)(C3)C2 (mixture of isomers) [Example A53] | > 1000 | > 1000 | 670 | – | –
2 | CC1(C)CN(CC23CC4C[C@](C)(C2)C[C@@](c2ccccc2)(C4)C3)CC[C@H]1N [Example C71] | > 1000 | > 1000 | > 1000 | – | –
3 | CC1CN(C(=O)C23CC4CC(C)(C2)CC(c2ccccc2)(C4)C3)CCC1N (racemic) [Example A39] | 210 | 91 | 46 | 13200 | –
4 | CCC12CC3CC(CN[C@H]4CCN[C@@H](C)C4)(C1)CC(c1ccccc1)(C3)C2 (some centres unmarked) [Example A63] | 740 | 435 | 725 | 1470 | –
5 | CC12CC3CC(C(=O)N4CC[C@@H](N)C4)(C1)CC(c1ccccc1)(C3)C2 (mixture of isomers) [Example A55] | 370 | 160 | 140 | 12600 | –
6 | CC12CC3CC(C(=O)N4CCC5(CCN5)CC4)(C1)CC(c1ccccc1)(C3)C2 (racemic) [Example A51] | 520 | 228 | 157 | – | –
7 | C[C@@]12CC3CC(C(=O)N[C@H]4CCNC[C@@H]4F)(C1)C[C@](c1ccccc1)(C3)C2 [Example C6] | 480 | 250 | 320 | 12700 | 2980
8 | C[C@@H]1C[C@H](NC(=O)C23CC4C[C@@](C)(C2)C[C@](c2ccccc2)(C4)C3)CCN1 [Example B14] | 730 | 250 | 25 | 14400 | –
9 | CC1CC(N)CCN1C(=O)C12CC3CC(C)(C1)CC(c1ccccc1)(C3)C2 (racemic) [Example A40] | 450 | 165 | 69 | 24600 | –
10 | CC12CC3CC(C(=O)N4C[C@H]5CNC[C@H]5C4)(C1)CC(c1ccccc1)(C3)C2 (mixture of isomers) [Example A45] | 330 | 301 | 205 | 30600 | –
11 | CC1(C)CN(C(=O)C23CC4C[C@@](C)(C2)C[C@](c2ccccc2)(C4)C3)CC[C@H]1N [Example B12] | 200 | 105 | 95 | 13300 | –
12 | CC12CC3CC(C(=O)NC45CCN(CC4)CC5)(C1)CC(c1ccccc1)(C3)C2 (racemic) [Example A60] | 330 | 120 | 35 | 23100 | –
13 | CC12CC3CC(C(=O)N4CCC(N)(CO)CC4)(C1)CC(c1ccccc1)(C3)C2 (racemic) [Example A46] | 90 | 48 | 41 | 12200 | –
14 | CC12CC3CC(C(=O)NC4CC5CNC4C5)(C1)CC(c1ccccc1)(C3)C2 (racemic) [Example A30] | 800 | 700 | 250 | 30000 | 5000
15 | C[C@@]12CC3CC(C(=O)N4CC5(CC(N)C5)C4)(C1)C[C@](c1ccccc1)(C3)C2 [Example C11] | 960 | 315 | 576 | – | –
16 | CC1(N)CCN(C(=O)C23CC4CC(C)(C2)CC(c2ccccc2)(C4)C3)CC1 (racemic) [Example A37] | 220 | 58.7 | 58 | 10900 | –
17 | c1ccc(C23CC4CC(CC(CN5CCNCC5)(C4)C2)C3)cc1 [Example A67] | > 1000 | > 1000 | > 1000 | – | –
18 | CCC12CC3CC(C(=O)N4CC[C@H](N)[C@@H](F)C4)(C1)CC(c1ccccc1)(C3)C2 (mixture of isomers) [Example A24] | 310 | 253 | 203 | 11200 | –
19 | C[C@]12CC3CC(C(=O)N4CC5(CC(N)C5)C4)(C1)C[C@@](c1ccccc1)(C3)C2 [Example B11] | 260 | 104 | 64 | 23600 | –
20 | CC12CC3CC(C(=O)N4CCC[C@H](N)C4)(C1)CC(c1ccccc1)(C3)C2 (mixture of isomers) [Example A56] | 60 | 75 | 107 | 9090 | –
21 | CCOCC12CC3CC(C(=O)N[C@H]4CC[C@@H](N)CC4)(C1)CC(c1ccccc1)(C3)C2 (mixture of isomers) [Example A29] | > 1000 | 790 | 62 | 16300 | –
22 | C[C@@]12CC3CC(C(=O)NC4CCNCC4)(C1)C[C@](c1ccccc1)(C3)C2 [Example C1] | 685 | 186 | 238 | 16300 | –
23 | CCC1CNCCN1C(=O)C12CC3CC(C)(C1)CC(c1ccccc1)(C3)C2 (racemic) [Example A36] | 130 | 229 | 171 | 8310 | –

Row | Structure (SMILES) | EC50 [1] [nM] | EC50 [2] [nM] | EC50 [3] [nM] | CC50 (in vitro) [nM] | EC50 [4] [nM]
24 | CC12CC3CC(CN[C@H]4CC[C@H](N)CC4)(C1)CC(c1ccccc1)(C3)C2 (some centres unmarked) [Example A65] | 180 | 175 | 280 | 1620 | 890
25 | CC1(C)CN(CC23CC4C[C@@](C)(C2)C[C@](c2ccccc2)(C4)C3)CC[C@H]1N [Example B71] | > 1000 | 1030 | 1180 | – | –
26 | CC12CC3CC(C(=O)N4CC[C@H](N)C4)(C1)CC(c1ccccc1)(C3)C2 (mixture of isomers) [Example A54] | 350 | 200 | 120 | 11300 | –
27 | CCC12CC3CC(CN[C@H]4CC[C@H](CN)CC4)(C1)CC(c1ccccc1)(C3)C2 (some centres unmarked) [Example A64] | 530 | 300 | 610 | 1240 | –
28 | C[C@@]12CC3CC(CN4CCC(N)CC4)(C1)C[C@](c1ccccc1)(C3)C2 [Example C69] | 310 | 208 | 313 | 3800 | 1140
29 | CC12CC3CC(C(=O)N4C5CCC4CC(N)C5)(C1)CC(c1ccccc1)(C3)C2 (racemic) [Example A42] | 460 | 190 | 33 | 11800 | –
30 | CC1(C)CN(CC23CC4C[C@](C)(C2)C[C@@](c2ccccc2)(C4)C3)CC[C@@H]1N [Example C70] | 1280 | 1020 | > 1000 | – | –
31 | CC[C@]12CC3CC(C(=O)N[C@H]4CC[C@H](N)CC4)(C1)C[C@@](c1ccccc1)(C3)C2 [Example B16] | 180 | 57 | 16 | – | 3020
32 | CC12CC3CC(C(=O)N4CCC5(CCNCC5)CC4)(C1)CC(c1ccccc1)(C3)C2 (racemic) [Example A50] | 160 | 90 | 61 | 8780 | –
33 | CCC12CC3CC(C(=O)NC4CCC5(CC4)CNC5)(C1)CC(c1ccccc1)(C3)C2 (racemic) [Example A27] | 1750 | 567 | 134 | 7900 | –
34 | CC12CC3CC(C(=O)N[C@@H]4CCCN5CCC[C@H]45)(C1)CC(c1ccccc1)(C3)C2 (mixture of isomers) [Example A59] | 400 | 257 | 26 | 12700 | –
35 | CC1(C)CN(CC23CC4C[C@@](C)(C2)C[C@](c2ccccc2)(C4)C3)CC[C@@H]1N [Example B70] | 1020 | 930 | 628 | – | –
36 | CC[C@@]12CC3CC(C(=O)N[C@H]4CC[C@H](N)CC4)(C1)C[C@](c1ccccc1)(C3)C2 [Example C16] | 940 | 388 | 353 | – | 2970
37 | CC1(C)CN(C(=O)C23CC4C[C@](C)(C2)C[C@@](c2ccccc2)(C4)C3)CCC1N (some centres unmarked) [Example C8] | 550 | 123 | 97 | 12400 | –
38 | CC12CC3CC(C(=O)N4CC5(CCNCC5)C4)(C1)CC(c1ccccc1)(C3)C2 (racemic) [Example A44] | 245 | 75 | 45 | 27200 | –
39 | CCC12CC3CC(CNC4CCNCC4)(C1)CC(c1ccccc1)(C3)C2 (centres unmarked) [Example A62] | 540 | 500 | 900 | 1620 | –
40 | C[C@@]12CC3CC(C(=O)N4CCC(N)C5(CC5)C4)(C1)C[C@](c1ccccc1)(C3)C2 (some centres unmarked) [Example C9] | 620 | 150 | 269 | – | –
41 | CCC12CC3CC(CNC4CCNCC4(C)C)(C1)CC(c1ccccc1)(C3)C2 (centres unmarked) [Example A61] | 660 | 750 | 800 | 1240 | –
42 | CC12CC3CC(C(=O)N4CC5(CNC5)C4)(C1)CC(c1ccccc1)(C3)C2 (racemic) [Example A47] | 335 | 238 | 65 | 42300 | –
43 | CC12CC3CC(C(=O)N4CCC5(CC5N)C4)(C1)CC(c1ccccc1)(C3)C2 (racemic) [Example A41] | 680 | 209 | 153 | 27700 | –
44 | CC12CC3CC(C(=O)N4CCCC(N)CC4)(C1)CC(c1ccccc1)(C3)C2 (racemic) [Example A43] | 370 | 126 | 147 | 13000 | –
45 | CC12CC3CC(C(=O)N4CCC[C@@H](N)C4)(C1)CC(c1ccccc1)(C3)C2 (mixture of isomers) [Example A57] | 220 | 170 | 55 | 7880 | –
46 | CC12CC3CC(C(=O)N4CCCNCC4)(C1)CC(c1ccccc1)(C3)C2 (racemic) [Example A34] | 180 | 120 | 90 | 23600 | –
